{"source": "patent EP0385712B1", "about": "“A peptide for use in the manufacture of a composition for prevention or treatment of a condition susceptible to treatment with a platelet aggregation inhibition agent” (ASAHI KASEI KOGYO KABUSHIKI KAISHA, priority 1989, dated 1994)", "system": "rat, Wister strain", "test": "Acute toxicity in rat, intravenous", "assay_type": "in vivo", "conditions": "body weight 80 - 90 g, 80 µg/kg intravenously in the tail, solution in 0.1 M aqueous sodium acetate containing 0.1 % bovine serum albumin", "procedure": "A solution of each of the following compounds in 0.1 M aqueous sodium acetate containing 0.1 % bovine serum albumin is administered into a rat, Wister strain, body weight 80 - 90 g, 80 µg/kg, intraveneously in the tail.", "note": "Positions of bridges follow the written chain, without caps; N, C: chain ends. Residues, ends and D or L forms follow the SMILES beside them."}
{"molecule": "desalanyl- [Asu^2,7] -h -β-CGRP", "values": [{"measurement": "Acute toxicity (deaths)", "value": "No deaths were observed"}]}
{"molecule": "CC(C)C[C@H](NC(=O)[C@H](CCCNC(=N)N)NC(=O)[C@H](Cc1c[nH]cn1)NC(=O)[C@@H](NC(=O)[C@@H](NC(=O)[C@@H]1CSSC[C@H](NC(=O)[C@H](C)N)C(=O)N[C@@H](CC(N)=O)C(=O)N[C@@H]([C@@H](C)O)C(=O)N[C@@H](C)C(=O)N[C@@H]([C@@H](C)O)C(=O)N1)C(C)C)[C@@H](C)O)C(=O)N[C@@H](C)C(=O)N[C@@H](CC(=O)O)C(=O)N[C@@H](Cc1ccccc1)C(=O)N[C@@H](CC(C)C)C(=O)N[C@@H](CO)C(=O)N[C@@H](CCCNC(=N)N)C(=O)N[C@@H](CO)C(=O)NCC(=O)NCC(=O)N[C@H](C(=O)N[C@H](C(=O)N[C@@H](CCCCN)C(=O)N[C@@H](CC(N)=O)C(=O)N[C@@H](CC(N)=O)C(=O)N[C@@H](Cc1ccccc1)C(=O)N[C@H](C(=O)N1CCC[C@H]1C(=O)N[C@H](C(=O)N[C@@H](CC(N)=O)C(=O)N[C@H](C(=O)NCC(=O)N[C@@H](CO)C(=O)N[C@@H](CCCCN)C(=O)N[C@@H](C)C(=O)N[C@@H](Cc1ccccc1)C(N)=O)C(C)C)[C@@H](C)O)C(C)C)C(C)C)C(C)C", "note": "[[Asn³, Asp¹⁴, Phe¹⁵] -h -α-CGRP] (H-ACNTATCVTHRLADFLSRSGGVVKNNFVPTNVGSKAF-NH2; disulfide 2-7)", "values": [{"measurement": "Acute toxicity (deaths)", "value": "No deaths were observed"}]}
